Test results reported in ChEMBL document CHEMBL5260810, “Inhibition of bromodomain-containing protein 9 for the prevention of epigenetically-defined drug resistance” (Bioorg Med Chem Lett, 2017).

Assays:
[1] = Cytotoxicity against human HCC1576 cells measured after 8 days; type: functional, cell-based; conditions: HCC1576, 192 h
MM1.S = assay: Cytotoxicity against human MM1.S cells measured after 8 days; type: functional, cell-based; conditions: 192 h
[2] = Cytotoxicity against human KMS-34 cells measured after 8 days; type: functional, cell-based; conditions: KMS-34, 192 h
KMS-12-BM = assay: Cytotoxicity against human KMS-12-BM cells measured after 8 days; type: functional, cell-based; conditions: 192 h
NCI-H1930 = assay: Cytotoxicity against human NCI-H1930 cells measured after 8 days; type: functional, cell-based; conditions: NCI-H1930, 192 h
[3] = Cytotoxicity against human NCI-H2135 cells measured after 8 days; type: functional, cell-based; conditions: NCI-H2135, 192 h
RPMI-8226 = assay: Cytotoxicity against human RPMI-8226 cells measured after 8 days; type: functional, cell-based; conditions: RPMI-8226, 192 h
SUP-B15 = assay: Cytotoxicity against human SUP-B15 cells measured after 8 days; type: functional, cell-based; conditions: SUP-B15, 192 h
[4] = Cytotoxicity against human NCI-H2804 cells measured after 8 days; type: functional, cell-based; conditions: NCI-H2804, 192 h
[5] = Cytotoxicity against human NCE-G 141 cells measured after 8 days; type: functional, cell-based; conditions: NCE-G 141, 192 h
[6] = Cytotoxicity against human GOTO.P3 cells measured after 8 days; type: functional, cell-based; conditions: GOTO.P3, 192 h
A20 = assay: Cytotoxicity against mouse A20 cells measured after 8 days; type: functional, cell-based; conditions: A20, 192 h
KALS-1 = assay: Cytotoxicity against human KALS-1 cells measured after 8 days; type: functional, cell-based; conditions: KALS-1, 192 h
KP-N-YN = assay: Cytotoxicity against human KP-N-YN cells measured after 8 days; type: functional, cell-based; conditions: 192 h
LN-18 = assay: Cytotoxicity against human LN-18 cells measured after 8 days; type: functional, cell-based; conditions: LN-18, 192 h
MC-IXC = assay: Cytotoxicity against human MC-IXC cells measured after 8 days; type: functional, cell-based; conditions: 192 h
NB1 = assay: Cytotoxicity against human NB1 cells measured after 8 days; type: functional, cell-based; conditions: NB1, 192 h
SIMA = assay: Cytotoxicity against human SIMA cells measured after 8 days; type: functional, cell-based; conditions: 192 h
SK-N-FI = assay: Cytotoxicity against human SK-N-FI cells measured after 8 days; type: functional, cell-based; conditions: 192 h
A2780 = assay: Cytotoxicity against human A2780 cells measured after 8 days; type: functional, cell-based; conditions: A2780, 192 h
[7] = Cytotoxicity against human COV413A cells measured after 8 days; type: functional, cell-based; conditions: 192 h
[8] = Cytotoxicity against human U-87 MG cells measured after 8 days; type: functional, cell-based, U-87MG ATCC; conditions: 192 h
EFM-19 = assay: Cytotoxicity against human EFM-19 cells measured after 8 days; type: functional, cell-based; conditions: EFM-19, 192 h
HCC1187 = assay: Cytotoxicity against human HCC1187 cells measured after 8 days; type: functional, cell-based; conditions: HCC1187, 192 h
[9] = Cytotoxicity against human MCAS cells measured after 8 days; type: functional, cell-based; conditions: 192 h
SW982 = assay: Cytotoxicity against human SW982 cells measured after 8 days; type: functional, cell-based; conditions: SW982, 192 h
[10] = Cytotoxicity against human OVISE cells measured after 8 days; type: functional, cell-based; conditions: 192 h
[11] = Cytotoxicity against human OVSAHO cells measured after 8 days; type: functional, cell-based; conditions: 192 h
[12] = Cytotoxicity against human RKN cells measured after 8 days; type: functional, cell-based; conditions: 192 h
Ca-Ski = assay: Cytotoxicity against human Ca-Ski cells measured after 8 days; type: functional, cell-based; conditions: 192 h
HeLa = assay: Cytotoxicity against human HeLa cells measured after 8 days; type: functional, cell-based; conditions: 192 h
[13] = Cytotoxicity against human KP-3 cells measured after 8 days; type: functional, cell-based; conditions: KP-3, 192 h
Panc02 = assay: Cytotoxicity against mouse Panc02 cells measured after 8 days; type: functional, cell-based; conditions: Panc02, 192 h
[14] = Cytotoxicity against human 51BLim 10 cells measured after 8 days; type: functional, cell-based; conditions: 51BLim 10, 192 h
C2BBe1 = assay: Cytotoxicity against human C2BBe1 cells measured after 8 days; type: functional, cell-based; conditions: C2BBe1, 192 h
CT26.WT = assay: Cytotoxicity against mouse CT26.WT cells measured after 8 days; type: functional, cell-based; conditions: 192 h
PSN1 = assay: Cytotoxicity against human PSN1 cells measured after 8 days; type: functional, cell-based; conditions: PSN1, 192 h
SW1990 = assay: Cytotoxicity against human SW1990 cells measured after 8 days; type: functional, cell-based; conditions: SW1990, 192 h
[15] = Cytotoxicity against mouse TRAMP-C2 cells measured after 8 days; type: functional, cell-based; conditions: TRAMP-C2, 192 h
MC-38 = assay: Cytotoxicity against mouse MC-38 cells measured after 8 days; type: functional, cell-based; conditions: MC-38, 192 h
[16] = Cytotoxicity against human PMF-ko14 cells measured after 8 days; type: functional, cell-based; conditions: PMF-ko14, 192 h
[17] = Cytotoxicity against human SW403 cells measured after 8 days; type: functional, cell-based; conditions: SW-403, 192 h
SW837 = assay: Cytotoxicity against human SW837 cells measured after 8 days; type: functional, cell-based; conditions: SW837, 192 h
A673 = assay: Cytotoxicity against human A673 cells measured after 8 days; type: functional, cell-based; conditions: A673, 192 h
[18] = Cytotoxicity against human Mel 928 cells measured after 8 days; type: functional, cell-based; conditions: Mel 928, 192 h
KYSE-270 = assay: Cytotoxicity against human KYSE-270 cells measured after 8 days; type: functional, cell-based; conditions: KYSE-270, 192 h
[19] = Cytotoxicity against human HSC-5 cells measured after 8 days; type: functional, cell-based; conditions: HSC-5, 192 h
[20] = Cytotoxicity against human T.T cells measured after 8 days; type: functional, cell-based; conditions: TT, 192 h
G-401 = assay: Cytotoxicity against human G-401 cells measured after 8 days; type: functional, cell-based; conditions: G-401, 192 h
[21] = Cytotoxicity against human KMRC-20 cells measured after 8 days; type: functional, cell-based; conditions: KMRC-20, 192 h
TK-10 = assay: Cytotoxicity against human TK-10 cells measured after 8 days; type: functional, cell-based; conditions: TK-10, 192 h
[22] = Cytotoxicity against human MMAc cells measured after 8 days; type: functional, cell-based; conditions: 192 h
HuCCT-1 = assay: Cytotoxicity against human HuCCT-1 cells measured after 8 days; type: functional, cell-based; conditions: HuCCT-1, 192 h
HGC-27 = assay: Cytotoxicity against human HGC-27 cells measured after 8 days; type: functional, cell-based; conditions: HGC-27, 192 h
MKN-1 = assay: Cytotoxicity against human MKN-1 cells measured after 8 days; type: functional, cell-based; conditions: MKN-1, 192 h
[23] = Cytotoxicity against human SNU-620 cells measured after 8 days; type: functional, cell-based; conditions: SNU620, 192 h
FTC-133 = assay: Cytotoxicity against human FTC-133 cells measured after 8 days; type: functional, cell-based; conditions: FTC-133, 192 h
UMUC3 = assay: Cytotoxicity against human UMUC3 cells measured after 8 days; type: functional, cell-based; conditions: UMUC3, 192 h
[24] = Cytotoxicity against human HCC60 cells measured after 8 days; type: functional, cell-based; conditions: HCC60, 192 h
[25] = Cytotoxicity against mouse KLN205 cells measured after 8 days; type: functional, cell-based; conditions: KLN205, 192 h
[26] = target: Serine/threonine-protein kinase PLK1 (Homo sapiens) (UniProt P53350); assay: Inhibition of PLK1 (unknown origin) at 1 uM relative to control
Chain of Serine/threonine-protein kinase PLK1 (Homo sapiens) (P53350 whole entry): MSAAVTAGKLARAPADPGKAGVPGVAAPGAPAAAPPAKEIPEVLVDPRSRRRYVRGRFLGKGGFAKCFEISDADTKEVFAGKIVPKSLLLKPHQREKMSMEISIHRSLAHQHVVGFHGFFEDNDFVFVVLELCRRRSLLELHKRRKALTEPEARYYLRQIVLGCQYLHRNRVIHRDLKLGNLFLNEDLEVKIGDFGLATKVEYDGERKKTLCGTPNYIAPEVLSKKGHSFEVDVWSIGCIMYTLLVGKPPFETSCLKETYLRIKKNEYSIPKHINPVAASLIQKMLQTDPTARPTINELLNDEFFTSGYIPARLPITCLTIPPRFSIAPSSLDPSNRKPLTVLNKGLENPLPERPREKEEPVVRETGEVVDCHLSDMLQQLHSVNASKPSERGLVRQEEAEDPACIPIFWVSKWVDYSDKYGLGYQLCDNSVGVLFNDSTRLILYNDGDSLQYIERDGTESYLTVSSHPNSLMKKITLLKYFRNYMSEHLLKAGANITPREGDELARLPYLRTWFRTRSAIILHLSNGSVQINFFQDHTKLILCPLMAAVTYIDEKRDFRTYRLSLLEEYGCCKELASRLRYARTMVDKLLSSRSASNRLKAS

PC-9 = assay: Cytotoxicity against human PC-9 cells assessed as decrease in drug tolerant population supplemented with fresh medium containing compound every 3 days for 9 days in presence of erlotinib by Beckman Coulter counting method; type: functional, cell-based; conditions: time 9.0 day

C/C=C/Cn1cc(-c2ccc(C(C)(C)O)cc2OC)c2cc[nH]c2c1=O
active: Activity (PC-9) Dose-Dependent Effect
1%: inhibition [26]
13.7 µM: IC50 (LN-18)
3.43 µM: IC50 (A20)
10.2 µM: IC50 (NB1)
14.4 µM: IC50 (HGC-27)
20 µM: IC50 [1] | IC50 (MM1.S) | IC50 [2] | IC50 (KMS-12-BM) | IC50 (NCI-H1930) | IC50 [3] | IC50 (RPMI-8226) | IC50 (SUP-B15) | IC50 [4] | IC50 [5] | IC50 [6] | IC50 (KALS-1) | IC50 (KP-N-YN) | IC50 (MC-IXC) | IC50 (SIMA) | IC50 (SK-N-FI) | IC50 (A2780) | IC50 [7] | IC50 [8] | IC50 (EFM-19) | IC50 (HCC1187) | IC50 [9] | IC50 (SW982) | IC50 [10] | IC50 [11] | IC50 [12] | IC50 (Ca-Ski) | IC50 (HeLa) | IC50 [13] | IC50 (Panc02) | IC50 [14] | IC50 (C2BBe1) | IC50 (CT26.WT) | IC50 (PSN1) | IC50 (SW1990) | IC50 [15] | IC50 (MC-38) | IC50 [16] | IC50 [17] | IC50 (SW837) | IC50 (A673) | IC50 [18] | IC50 (KYSE-270) | IC50 [19] | IC50 [20] | IC50 (G-401) | IC50 [21] | IC50 (TK-10) | IC50 [22] | IC50 (HuCCT-1) | IC50 (MKN-1) | IC50 [23] | IC50 (FTC-133) | IC50 (UMUC3) | IC50 [24] | IC50 [25]

C/C=C/Cn1cc(-c2ccc(C(=O)N3CCOCC3)cc2)c2cc[nH]c2c1=O
13.7 µM: IC50 (KMS-12-BM)
20 µM: IC50 [1] | IC50 (MM1.S) | IC50 (NCI-H1930) | IC50 [3] | IC50 (RPMI-8226) | IC50 (SUP-B15) | IC50 [4] | IC50 [5] | IC50 [6] | IC50 (KALS-1) | IC50 (KP-N-YN) | IC50 (LN-18) | IC50 (MC-IXC) | IC50 (NB1) | IC50 (SIMA) | IC50 (SK-N-FI) | IC50 (A2780) | IC50 [7] | IC50 [8] | IC50 (EFM-19) | IC50 (HCC1187) | IC50 [9] | IC50 (SW982) | IC50 [10] | IC50 [11] | IC50 [12] | IC50 (Ca-Ski) | IC50 (HeLa) | IC50 [13] | IC50 (Panc02) | IC50 (C2BBe1) | IC50 (CT26.WT) | IC50 (PSN1) | IC50 (SW1990) | IC50 [15] | IC50 (MC-38) | IC50 [16] | IC50 [17] | IC50 (SW837) | IC50 (A673) | IC50 [18] | IC50 (KYSE-270) | IC50 [19] | IC50 [20] | IC50 (G-401) | IC50 [21] | IC50 (TK-10) | IC50 [22] | IC50 (HuCCT-1) | IC50 (MKN-1) | IC50 [23] | IC50 (FTC-133) | IC50 (UMUC3) | IC50 [24] | IC50 [25]
15.3 µM: IC50 [2]
16.9 µM: IC50 (HGC-27)
7 µM: IC50 (A20)
active: Activity (PC-9) Dose-Dependent Effect
12.2 µM: IC50 [14]
0.9%: inhibition [26]
